Patent publication US20260356819A1, “OXOISOINDOLINYL-SUBSTITUTED […] DERIVATIVE AND USE THEREOF” (GLUETACS THERAPEUTICS (SHANGHAI) CO., LTD., priority 2023, published 2026)

Legend:
Assay type in all cases: cell-based
Conditions in all cases: compounds at 50 nM and 500 nM
IKZF2 = target: T1, IKZF2 (Homo sapiens, UniProt Q96SW2+Q9UKS7); assay: Western blot degradation of IKZF2 in hPBMCs (24 h)
T1 construct: The supernatant was aspirated as the extracted total cell protein; endogenous in cells; host or cells: human peripheral blood mononuclear cells (hPBMCs)
Outline: (§1)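 Immunoblot densitometry quantifies target loss in hPBMCs after a 24 h compound exposure (50 nM, 500 nM). Percent remaining is normalised band intensity; DC50 is the concentration giving half the DMSO-control band grayscale.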

IKZF3 = target: T2, IKZF3 (Homo sapiens, UniProt Q96SW2+Q9UKT9); assay: Western blot degradation of IKZF3 in hPBMCs (24 h)
T2 construct: The supernatant was aspirated as the extracted total cell protein; endogenous in cells; host or cells: human peripheral blood mononuclear cells (hPBMCs)
Outline: as §1

CK1α = target: T3, CK1α (Homo sapiens, UniProt P48729+Q96SW2); assay: Western blot degradation of CK1α in hPBMCs (24 h)
T3 construct: The supernatant was aspirated as the extracted total cell protein; endogenous in cells; host or cells: human peripheral blood mononuclear cells (hPBMCs)
Outline: as §1

GSPT1 = target: T4, GSPT1 (Homo sapiens, UniProt P15170+Q96SW2); assay: Western blot degradation of GSPT1 in hPBMCs (24 h)
T4 construct: The supernatant was aspirated as the extracted total cell protein; endogenous in cells; host or cells: human peripheral blood mononuclear cells (hPBMCs)
Outline: as §1

IKZF1 = target: T5, IKZF1 (Homo sapiens, UniProt Q13422+Q96SW2); assay: Western blot degradation of IKZF1 in hPBMCs (24 h)
T5 construct: The supernatant was aspirated as the extracted total cell protein; endogenous in cells; host or cells: human peripheral blood mononuclear cells (hPBMCs)
Outline: as §1

WEE1 = target: T6, WEE1 (Homo sapiens, UniProt P30291+Q96SW2); assay: Western blot degradation of WEE1 in hPBMCs (24 h)
T6 construct: The supernatant was aspirated as the extracted total cell protein; endogenous in cells; host or cells: human peripheral blood mononuclear cells (hPBMCs)
Outline: as §1

T1 sequence (Q9UKS7 whole entry): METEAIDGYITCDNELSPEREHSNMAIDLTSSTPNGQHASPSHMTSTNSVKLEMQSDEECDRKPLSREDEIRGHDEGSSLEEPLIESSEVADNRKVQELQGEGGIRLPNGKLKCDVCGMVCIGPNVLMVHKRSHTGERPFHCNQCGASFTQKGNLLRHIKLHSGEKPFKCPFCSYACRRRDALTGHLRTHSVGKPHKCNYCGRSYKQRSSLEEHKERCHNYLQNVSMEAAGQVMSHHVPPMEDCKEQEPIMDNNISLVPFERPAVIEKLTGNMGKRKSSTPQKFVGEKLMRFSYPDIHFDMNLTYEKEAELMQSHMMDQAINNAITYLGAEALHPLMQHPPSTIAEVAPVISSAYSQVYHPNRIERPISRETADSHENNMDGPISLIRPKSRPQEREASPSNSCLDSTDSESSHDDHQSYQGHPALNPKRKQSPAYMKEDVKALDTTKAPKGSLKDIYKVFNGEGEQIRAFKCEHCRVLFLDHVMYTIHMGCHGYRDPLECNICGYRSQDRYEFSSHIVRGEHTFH
T1 sequence (Q96SW2 whole entry): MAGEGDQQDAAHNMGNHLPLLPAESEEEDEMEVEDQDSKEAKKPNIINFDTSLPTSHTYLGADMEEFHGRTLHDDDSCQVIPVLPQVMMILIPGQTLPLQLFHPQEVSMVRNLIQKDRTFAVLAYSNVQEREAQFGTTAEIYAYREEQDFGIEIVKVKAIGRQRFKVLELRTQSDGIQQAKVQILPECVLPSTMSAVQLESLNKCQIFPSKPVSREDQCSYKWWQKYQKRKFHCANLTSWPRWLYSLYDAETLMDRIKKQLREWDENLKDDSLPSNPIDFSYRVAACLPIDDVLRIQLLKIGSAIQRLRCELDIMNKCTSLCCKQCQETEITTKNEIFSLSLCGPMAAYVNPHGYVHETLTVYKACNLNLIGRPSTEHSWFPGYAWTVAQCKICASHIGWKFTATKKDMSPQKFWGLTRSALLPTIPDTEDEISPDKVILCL
T1 sequence (Q16531 whole entry partner): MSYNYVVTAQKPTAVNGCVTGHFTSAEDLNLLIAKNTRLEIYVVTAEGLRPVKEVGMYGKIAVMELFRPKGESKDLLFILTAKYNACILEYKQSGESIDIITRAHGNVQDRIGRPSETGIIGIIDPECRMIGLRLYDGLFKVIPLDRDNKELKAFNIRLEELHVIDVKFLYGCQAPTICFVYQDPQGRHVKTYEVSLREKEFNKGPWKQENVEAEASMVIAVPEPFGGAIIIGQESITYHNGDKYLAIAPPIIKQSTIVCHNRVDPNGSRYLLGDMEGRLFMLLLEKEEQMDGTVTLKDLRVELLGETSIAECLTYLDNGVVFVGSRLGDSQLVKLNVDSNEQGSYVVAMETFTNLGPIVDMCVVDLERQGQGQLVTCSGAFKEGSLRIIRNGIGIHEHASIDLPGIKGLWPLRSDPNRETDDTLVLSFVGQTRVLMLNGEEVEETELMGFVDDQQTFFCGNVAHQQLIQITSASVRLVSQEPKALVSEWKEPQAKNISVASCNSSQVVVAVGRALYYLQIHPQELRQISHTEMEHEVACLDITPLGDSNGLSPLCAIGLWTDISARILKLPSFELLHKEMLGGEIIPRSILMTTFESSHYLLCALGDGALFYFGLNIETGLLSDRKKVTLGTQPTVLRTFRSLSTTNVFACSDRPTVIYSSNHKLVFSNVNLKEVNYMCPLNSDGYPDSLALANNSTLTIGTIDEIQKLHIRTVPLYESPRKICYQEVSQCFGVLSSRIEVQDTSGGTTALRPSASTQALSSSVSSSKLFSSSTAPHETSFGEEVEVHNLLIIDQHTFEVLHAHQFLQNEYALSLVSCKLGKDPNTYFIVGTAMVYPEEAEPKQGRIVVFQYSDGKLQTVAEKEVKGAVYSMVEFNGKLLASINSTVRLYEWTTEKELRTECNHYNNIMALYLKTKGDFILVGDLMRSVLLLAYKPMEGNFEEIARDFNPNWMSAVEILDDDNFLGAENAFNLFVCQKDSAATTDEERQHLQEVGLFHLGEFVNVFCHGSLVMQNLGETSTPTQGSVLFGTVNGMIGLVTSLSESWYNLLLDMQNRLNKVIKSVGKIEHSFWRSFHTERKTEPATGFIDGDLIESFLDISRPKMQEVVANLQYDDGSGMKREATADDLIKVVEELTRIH
T4 sequence (P15170 whole entry): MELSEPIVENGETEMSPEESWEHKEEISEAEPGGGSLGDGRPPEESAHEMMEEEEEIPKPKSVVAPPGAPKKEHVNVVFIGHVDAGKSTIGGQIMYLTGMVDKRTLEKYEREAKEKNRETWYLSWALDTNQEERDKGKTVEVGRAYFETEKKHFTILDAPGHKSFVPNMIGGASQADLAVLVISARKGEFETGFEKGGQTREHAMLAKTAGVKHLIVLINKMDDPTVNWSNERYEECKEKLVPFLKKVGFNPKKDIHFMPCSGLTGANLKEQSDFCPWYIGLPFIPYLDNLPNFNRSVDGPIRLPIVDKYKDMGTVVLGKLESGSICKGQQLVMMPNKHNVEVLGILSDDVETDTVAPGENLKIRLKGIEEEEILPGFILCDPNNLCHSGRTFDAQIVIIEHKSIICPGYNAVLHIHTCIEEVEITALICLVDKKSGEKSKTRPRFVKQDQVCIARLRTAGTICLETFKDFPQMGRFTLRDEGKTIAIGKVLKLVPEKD
T4 sequence (Q96SW2 whole entry): as the sequence (Q96SW2 whole entry) above
T4 sequence (Q16531 whole entry partner): as the sequence (Q16531 whole entry partner) above
T6 sequence (P30291 whole entry): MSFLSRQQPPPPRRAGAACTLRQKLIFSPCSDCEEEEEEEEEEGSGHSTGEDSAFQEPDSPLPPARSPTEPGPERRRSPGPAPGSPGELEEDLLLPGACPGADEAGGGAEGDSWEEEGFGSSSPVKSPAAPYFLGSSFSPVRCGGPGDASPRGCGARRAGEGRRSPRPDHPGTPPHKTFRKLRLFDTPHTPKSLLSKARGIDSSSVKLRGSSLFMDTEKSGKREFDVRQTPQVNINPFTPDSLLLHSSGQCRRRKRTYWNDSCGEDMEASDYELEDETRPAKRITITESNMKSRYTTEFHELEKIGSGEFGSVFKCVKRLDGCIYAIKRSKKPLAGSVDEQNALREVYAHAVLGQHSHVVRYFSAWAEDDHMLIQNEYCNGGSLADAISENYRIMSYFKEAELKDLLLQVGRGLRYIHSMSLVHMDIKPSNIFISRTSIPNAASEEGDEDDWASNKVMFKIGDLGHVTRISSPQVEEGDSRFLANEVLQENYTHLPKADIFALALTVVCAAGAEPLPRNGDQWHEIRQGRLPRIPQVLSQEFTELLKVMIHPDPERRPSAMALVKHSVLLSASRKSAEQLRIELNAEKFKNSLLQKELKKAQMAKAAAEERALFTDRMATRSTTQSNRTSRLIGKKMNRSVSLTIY
T6 sequence (Q96SW2 whole entry): as the sequence (Q96SW2 whole entry) above
T6 sequence (Q16531 whole entry partner): as the sequence (Q16531 whole entry partner) above
T3 sequence (P48729 whole entry): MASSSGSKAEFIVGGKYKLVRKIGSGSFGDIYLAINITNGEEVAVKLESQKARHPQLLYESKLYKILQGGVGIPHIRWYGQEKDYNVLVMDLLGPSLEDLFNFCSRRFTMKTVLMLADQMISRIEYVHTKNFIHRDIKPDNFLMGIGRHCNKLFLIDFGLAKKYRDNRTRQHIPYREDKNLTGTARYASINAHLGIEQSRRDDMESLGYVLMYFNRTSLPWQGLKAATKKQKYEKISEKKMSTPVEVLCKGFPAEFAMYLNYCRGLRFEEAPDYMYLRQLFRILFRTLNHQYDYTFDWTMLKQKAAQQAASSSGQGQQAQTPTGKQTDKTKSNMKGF
T3 sequence (Q96SW2 whole entry): as the sequence (Q96SW2 whole entry) above
T3 sequence (Q16531 whole entry partner): as the sequence (Q16531 whole entry partner) above
T5 sequence (Q13422 whole entry): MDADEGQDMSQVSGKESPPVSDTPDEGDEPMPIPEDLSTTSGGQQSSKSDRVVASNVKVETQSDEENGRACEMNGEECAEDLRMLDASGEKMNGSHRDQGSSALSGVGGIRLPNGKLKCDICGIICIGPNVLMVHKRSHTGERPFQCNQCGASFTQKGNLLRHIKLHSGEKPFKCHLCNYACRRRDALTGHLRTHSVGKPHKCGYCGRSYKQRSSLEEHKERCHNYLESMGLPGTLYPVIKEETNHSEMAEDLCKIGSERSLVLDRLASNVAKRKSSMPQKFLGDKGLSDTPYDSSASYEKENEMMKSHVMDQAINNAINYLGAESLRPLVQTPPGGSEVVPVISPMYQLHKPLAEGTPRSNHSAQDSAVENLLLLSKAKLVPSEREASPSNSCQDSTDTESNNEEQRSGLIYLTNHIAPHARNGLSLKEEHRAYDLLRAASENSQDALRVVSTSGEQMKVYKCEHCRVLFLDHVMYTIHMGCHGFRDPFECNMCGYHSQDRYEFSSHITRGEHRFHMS
T5 sequence (Q96SW2 whole entry): as the sequence (Q96SW2 whole entry) above
T5 sequence (Q16531 whole entry partner): as the sequence (Q16531 whole entry partner) above

Structure (SMILES) | IKZF2 substrate protein remaining % (IKZF2) | IKZF3 substrate protein remaining % (IKZF3) | CK1α substrate protein remaining % (CK1α) | GSPT1 substrate protein remaining % (GSPT1) | IKZF1 substrate protein remaining % (IKZF1) | WEE1 substrate protein remaining % (WEE1)
CC1(C)CCC(CN2CC3CC(C2)N3Cc2ccc3c(c2)C(=O)N(N2CCC(=O)NC2=O)C3=O)=C(c2ccc(Cl)cc2)C1 [GT-06457, 5-((3-((4′-chloro-5,5-dimethyl-3,4,5,6-tetrahydro-[1,1′-biphenyl]-2-yl)methyl)-3,6-diazabicyclo[3.1.1]heptan-6-yl)methyl)-2-(2,4-dioxotetrahydropyrimidin-1(2H)-yl)isoindoline-1,3-dione] | A (0% ≤ substrate protein remaining % ≤80%) | A (0% ≤ substrate protein remaining % ≤80%) | A (0% ≤ substrate protein remaining % ≤80%) | A (0% ≤ substrate protein remaining % ≤80%) | A (0% ≤ substrate protein remaining % ≤80%) | A (0% ≤ substrate protein remaining % ≤80%)
CC1(C)CCC(CN2C3CC2CN(Cc2ccc4c(c2)CN(N2CCC(=O)NC2=O)C4=O)C3)=C(c2ccc(Cl)cc2)C1 [GT-06458, 1-(5-((6-((4′-chloro-5,5-dimethyl-3,4,5,6-tetrahydro-[1,1′-biphenyl]-2-yl)methyl)-3,6-diazabicyclo[3.1.1]heptan-3-yl)methyl)-1-oxoisoindolin-2-yl)dihydropyrimidine-2,4(1H,3H)-dione] | A (0% ≤ substrate protein remaining % ≤80%) | A (0% ≤ substrate protein remaining % ≤80%) | A (0% ≤ substrate protein remaining % ≤80%) | A (0% ≤ substrate protein remaining % ≤80%) | A (0% ≤ substrate protein remaining % ≤80%) | A (0% ≤ substrate protein remaining % ≤80%)
CC1(C)CCC(CN2C3CC2CN(Cc2ccc4c(c2)C(=O)N(N2CCC(=O)NC2=O)C4=O)C3)=C(c2ccc(Cl)cc2)C1 [GT-06459, 5-((6-((4′-chloro-5,5-dimethyl-3,4,5,6-tetrahydro-[1,1′-biphenyl]-2-yl)methyl)-3,6-diazabicyclo[3.1.1]heptan-3-yl)methyl)-2-(2,4-dioxotetrahydropyrimidin-1(2H)-yl)isoindoline-1,3-dione] | A (0% ≤ substrate protein remaining % ≤80%) | A (0% ≤ substrate protein remaining % ≤80%) | A (0% ≤ substrate protein remaining % ≤80%) | A (0% ≤ substrate protein remaining % ≤80%) | A (0% ≤ substrate protein remaining % ≤80%) | A (0% ≤ substrate protein remaining % ≤80%)
O=C1CCN(N2Cc3cc(CN4CCN(c5cccc(F)c5)CC4)ccc3C2=O)C(=O)N1 [GT-06701, 1-(5-((4-(3-fluorophenyl)piperazin-1-yl)methyl)-1-oxoisoindolin-2-yl)dihydropyrimidine-2,4(1H,3H)-dione] | B (80%< substrate protein remaining % ≤100%) | B (80%< substrate protein remaining % ≤100%) | A (0% ≤ substrate protein remaining % ≤80%) | A (0% ≤ substrate protein remaining % ≤80%) | B (80%< substrate protein remaining % ≤100%) | B (80%< substrate protein remaining % ≤100%)
